Test results published in ChEMBL document CHEMBL4834464, “Fragment-based Scaffold Hopping: Identification of Potent, Selective, and Highly Soluble Bromo and Extra Terminal Domain (BET) Second Bromodomain (BD2) Inhibitors” (J Med Chem, 2021).
Values after ≈ are worked out from the molar mass of the structure shown.

Assays:
[1] = Permeability of compound by AMP assay; assay type: ADME; conditions: not told; read-out: permeability
[2] = Solubility of the compound by CLND assay; assay type: physicochemical
[3] = Distribution coefficient, logD of the compound by chromatography; assay type: physicochemical; conditions: octanol/water
[4] = Solubility of the compound in FaSSIF at pH 6.5 using crystalline form of sample incubated for 16 hrs by HPLC gradient analysis; assay type: physicochemical
[5] = Intrinsic clearance in Wistar han rat hepatocytes measured per gram of tissue incubated for 60 mins by LC-MS/MS method; assay type: ADME, cell-based, Hepatocyte; conditions: 1 h
[6] = Intrinsic clearance in human hepatocytes measured per gram of tissue incubated for 120 mins by LC-MS/MS method; assay type: ADME, cell-based, Hepatocyte; conditions: 2 h
[7] = Intrinsic clearance in dog hepatocytes measured per gram of tissue by LC-MS/MS method; assay type: ADME, cell-based, Canis lupus familiaris, Hepatocyte
[8] = Blood clearance in male Wistar Han rat at 1 mg/kg, iv and 3 mg/kg, po measured up to 7 hrs by LC-MS/MS analysis; assay type: ADME, organism-based
[9] = Blood clearance in Beagle dog at 0.5 mg/kg, iv and 1 mg/kg, po measured up to 7 hrs by LC-MS/MS analysis; assay type: ADME, organism-based, Canis lupus familiaris
[10] = Volume of distribution at steady state in male Wistar Han rat at 1 mg/kg, iv and 3 mg/kg, po measured up to 7 hrs by LC-MS/MS analysis; assay type: ADME, organism-based; conditions: in vivo, read-out: Vdss
[11] = Volume of distribution at steady state in Beagle dog at 0.5 mg/kg, iv and 1 mg/kg, po measured up to 7 hrs by LC-MS/MS analysis; assay type: ADME, organism-based, Canis lupus familiaris; conditions: in vivo, read-out: Vdss
[12] = Half life in male Wistar Han rat at 1 mg/kg, iv and 3 mg/kg, po measured up to 7 hrs by LC-MS/MS analysis; assay type: ADME, organism-based; conditions: in vivo
[13] = Half life in Beagle dog at 0.5 mg/kg, iv and 1 mg/kg, po measured up to 7 hrs by LC-MS/MS analysis; assay type: ADME, organism-based, Canis lupus familiaris; conditions: in vivo
[14] = Oral bioavailability in male Wistar Han rat at 3 mg/kg measured up to 7 hrs by LC-MS/MS analysis; assay type: ADME, organism-based; conditions: in vivo
[15] = Oral bioavailability in Beagle dog at 1 mg/kg measured up to 7 hrs by LC-MS/MS analysis; assay type: ADME, organism-based, Canis lupus familiaris; conditions: in vivo
[16] = Kinetic solubility of compound […] using the charged aerosol detector (CAD) analysis; assay type: physicochemical; conditions: read-out: Kinetic_solubility
[17] = Solubility of the compound in FaSSIF at pH 6.5 incubated for 16 hrs by HPLC gradient analysis; assay type: physicochemical; conditions: for solubility at 16 h: FaSSIF, pH 6.5; for solubility: simulated gi fluid, pH 6.5, 16 h

Papp [1]	solubility kinetic [2]	chromatographic logD [3]	solubility kinetic [16]	solubility at 16 h [17]	Structure (SMILES)	other results
20 ×10⁻⁶ cm/s	≥ 131 µg/mL	4.1	–	–	CNC(=O)c1cc(C(=O)N[C@H]2[C@@H]3COC[C@@H]32)c([C@@H](C)c2ccccc2)o1	solubility thermodynamic at 16 h [4]: 980 µg/mL (≈ 2770 µM); CLint [5]: < 0.8 mL/min/g; CLint [6]: < 0.45 mL/min/g; CLint [7]: < 0.65 mL/min/g; clearance [8]: 55 mL/min/kg; clearance [9]: 2.9 mL/min/kg; Vd [10]: 2.7 L/kg; Vd [11]: 1.1 L/kg; half-life [12]: 0.7 h; half-life [13]: 5 h; bioavailability [14]: 100%; bioavailability [15]: 100%
7.3 ×10⁻⁶ cm/s	–	4.1	≥ 63 µg/mL	–	CNC(=O)c1cc(C(=O)N[C@H]2CC[C@H](O)CC2)c([C@@H](C)c2cccc(F)c2)o1	–
48 ×10⁻⁶ cm/s	≥ 127 µg/mL	4.2	–	–	CCCNC(=O)c1cc(C(=O)NC)oc1[C@@H](C)c1ccccc1	–
27 ×10⁻⁶ cm/s	–	3.9	≥ 175 µg/mL	–	CNC(=O)c1cc(C(=O)N[C@H]2CC[C@H](O)CC2)n([C@@H](C)c2ccc(C(F)(F)F)cc2)n1	–
20 ×10⁻⁶ cm/s	–	3.1	87 µg/mL (≈ 483 µM)	13 µg/mL (≈ 72.1 µM)	CCC(=O)c1c[nH]c(C(=O)NC)c1	–
10.8 ×10⁻⁶ cm/s	–	3.4	≥ 245 µg/mL	> 1000 µg/mL	CNC(=O)c1cc(C(=O)N[C@H]2CC[C@H](O)CC2)c([C@@H](C)c2ccc(C)cc2)o1	–
3.9 ×10⁻⁶ cm/s	–	2.7	≥ 164 µg/mL	> 1000 µg/mL	CNC(=O)c1cc(C(=O)N[C@H]2CC[C@H](OC)CC2)n([C@@H](CO)c2ccccc2)n1	–
3.3 ×10⁻⁶ cm/s	≥ 132 µg/mL	2.3	–	–	CNC(=O)c1cc(C(=O)NCCO)c([C@@H](C)c2ccccc2)o1	solubility thermodynamic at 16 h [4]: 925 µg/mL (≈ 2920 µM)
7.8 ×10⁻⁶ cm/s	–	3.1	≥ 242 µg/mL	> 1000 µg/mL	CNC(=O)c1cc(C(=O)N[C@H]2CC[C@H](O)CC2)c([C@@H](C)c2ccccc2Cl)o1	–
18 ×10⁻⁶ cm/s	–	3.7	≥ 132 µg/mL	102 µg/mL (≈ 252 µM)	CNC(=O)c1cc(C(=O)N[C@H]2CC[C@H](O)CC2)n([C@@H](C)c2ccc(Cl)cc2)n1	–
15 ×10⁻⁶ cm/s	–	3.5	≥ 118 µg/mL	–	CNC(=O)c1cc(C(=O)N[C@H]2CC[C@H](O)CC2)c([C@@H](C)c2ccc(Cl)cc2)o1	–
30.3 ×10⁻⁶ cm/s	≥ 192 µg/mL	4.1	–	–	CNC(=O)c1cc(C(=O)N[C@H]2CC[C@H](OC)CC2)c([C@@H](C)c2ccccc2)o1	solubility thermodynamic at 16 h [4]: 141 µg/mL (≈ 367 µM)
> 0.4 ×10⁻⁶ cm/s	–	3.6	≥ 112 µg/mL	–	CNC(=O)c1cc(C(=O)NC2CC2)c([C@H](C)c2ccccc2)o1	–
6.1 ×10⁻⁶ cm/s	≥ 291 µg/mL	3.2	–	–	CNC(=O)c1cc(C(=O)N[C@H]2[C@@H]3C[C@@H](O)C[C@@H]32)n([C@@H](C)c2ccccc2)n1	solubility thermodynamic at 16 h [4]: 101 µg/mL (≈ 274 µM)
4.5 ×10⁻⁶ cm/s	≥ 172 µg/mL	2.8	–	–	CNC(=O)c1cc(C(=O)N[C@H]2[C@@H]3C[C@@H](O)C[C@@H]32)c([C@@H](C)c2ccccc2)o1	solubility thermodynamic at 16 h [4]: 736 µg/mL (≈ 2000 µM); CLint [5]: < 0.8 mL/min/g; CLint [6]: < 0.45 mL/min/g; CLint [7]: < 0.65 mL/min/g; clearance [8]: 41 mL/min/kg; clearance [9]: 5 mL/min/kg; Vd [10]: 2.3 L/kg; Vd [11]: 1.1 L/kg; half-life [12]: 1.2 h; half-life [13]: 2.5 h; bioavailability [14]: 67%; bioavailability [15]: 58%
10 ×10⁻⁶ cm/s	–	3.9	≥ 182 µg/mL	–	CNC(=O)c1cc(C(=O)N[C@H]2CC[C@H](O)CC2)n([C@@H](C)c2ccccc2Cl)n1	–
11 ×10⁻⁶ cm/s	–	3.4	≥ 180 µg/mL	–	CNC(=O)c1cc(C(=O)N[C@H]2CC[C@H](O)CC2)n([C@@H](C)c2cccc(C)c2)n1	–
5.7 ×10⁻⁶ cm/s	≥ 121 µg/mL	2.7	–	–	CNC(=O)c1cc(C(=O)NC(C)CO)c([C@@H](C)c2ccccc2)o1 (stereo partly drawn)	–
33.3 ×10⁻⁶ cm/s	–	3.7	≥ 168 µg/mL	327 µg/mL (≈ 812 µM)	CNC(=O)c1cc(C(=O)N[C@H]2[C@@H]3C[C@H](O)C[C@@H]32)n([C@@H](C)c2cccc(Cl)c2)n1	CLint [5]: 17.3 mL/min/g; CLint [6]: 10.8 mL/min/g; CLint [7]: 8.3 mL/min/g
28 ×10⁻⁶ cm/s	–	4.1	7 µg/mL (≈ 16 µM)	–	CNC(=O)c1cc(C(=O)N[C@H]2CC[C@H](O)CC2)n([C@@H](C)c2cccc(C(F)(F)F)c2)n1	–
–	–	3.3	–	699 µg/mL (≈ 2060 µM)	CNC(=O)c1cc(C(=O)NC2CC2)cn([C@@H](C)c2ccccc2)c1=O	–

Papp [1]	solubility kinetic [2]	chromatographic logD [3]	solubility kinetic [16]	solubility at 16 h [17]	Structure (SMILES)	other results
15 ×10⁻⁶ cm/s	–	3.5	≥ 179 µg/mL	408 µg/mL (≈ 1010 µM)	CNC(=O)c1cc(C(=O)N[C@H]2CC[C@H](O)CC2)c([C@@H](C)c2cccc(Cl)c2)o1	CLint [5]: 1.5 mL/min/g; CLint [6]: < 0.45 mL/min/g; CLint [7]: 0.71 mL/min/g; clearance [8]: 55 mL/min/kg; clearance [9]: 3.6 mL/min/kg; Vd [10]: 2.7 L/kg; Vd [11]: 0.9 L/kg; half-life [12]: 0.9 h; half-life [13]: 3.1 h; bioavailability [14]: 37%; bioavailability [15]: 62%
28 ×10⁻⁶ cm/s	≥ 88 µg/mL	3	–	–	CNC(=O)c1cc(C(=O)NC)n([C@@H](C)c2ccccc2)n1	–
56 ×10⁻⁶ cm/s	≥ 132 µg/mL	4.4	–	–	CCCNC(=O)c1cc(C(=O)NC)nn1[C@@H](C)c1ccccc1	–
–	–	3.5	–	–	CNC(=O)c1cc(C(=O)NC2CC2)cn([C@H](C)c2ccccc2)c1=O	–
5.9 ×10⁻⁶ cm/s	≥ 139 µg/mL	2.4	–	–	CNC(=O)c1cc(C(=O)NCCO)n([C@@H](C)c2ccccc2)n1	–
42 ×10⁻⁶ cm/s	≥ 148 µg/mL	3.5	–	–	CCNC(=O)c1cc(C(=O)NC)oc1[C@@H](C)c1ccccc1	solubility thermodynamic at 16 h [4]: 432 µg/mL (≈ 1440 µM)
4.4 ×10⁻⁶ cm/s	–	2.9	≥ 113 µg/mL	868 µg/mL (≈ 2170 µM)	CNC(=O)c1cc(C(=O)N[C@H]2CC[C@H](O)CC2)c([C@@H](C)c2cccc(OC)c2)o1	–
7 ×10⁻⁶ cm/s	–	–	138 µg/mL (≈ 359 µM)	> 1000 µg/mL	CC[C@@H](c1ccccc1)n1nc(C(=O)NC)cc1C(=O)N[C@H]1CC[C@H](O)CC1	–
50 ×10⁻⁶ cm/s	≥ 145 µg/mL	3.6	≥ 145 µg/mL	–	CNC(=O)c1cc(C(=O)NC2CC2)c([C@@H](C)c2ccccc2)o1	solubility [17]: 423 µg/mL (≈ 1350 µM)
> 40 ×10⁻⁶ cm/s	≥ 165 µg/mL	3.6	≥ 165 µg/mL	–	CNC(=O)c1cc(C(=O)NC2CC2)n([C@@H](C)c2ccccc2)n1	solubility [17]: 939 µg/mL (≈ 3010 µM)
41.3 ×10⁻⁶ cm/s	–	5.1	26 µg/mL (≈ 52.9 µM)	–	CCNC(=O)c1cc2c(-c3cc(C(C)(C)O)ccc3Oc3c(C)cc(F)cc3C)cn(C)c(=O)c2[nH]1 [ABBV-744]	CLint [6]: 5.1 mL/min/g
43.5 ×10⁻⁶ cm/s	≥ 137 µg/mL	3.7	–	–	CCNC(=O)c1cc(C(=O)NC)nn1[C@@H](C)c1ccccc1	–
8.5 ×10⁻⁶ cm/s	–	3.3	≥ 172 µg/mL	> 1000 µg/mL	CNC(=O)c1cc(C(=O)N[C@H]2CC[C@H](O)CC2)c([C@@H](C)c2cccc(C)c2)o1	–
23 ×10⁻⁶ cm/s	–	3.6	–	–	CC[C@@H](c1ccccc1)n1nc(C(=O)NC)cc1C(=O)N[C@H]1[C@@H]2C[C@H](O)C[C@@H]21	–
12 ×10⁻⁶ cm/s	≥ 132 µg/mL	2.8	–	–	CNC(=O)c1cc(C(=O)NC(C)CO)n([C@@H](C)c2ccccc2)n1 (stereo partly drawn)	–
23.5 ×10⁻⁶ cm/s	–	3.7	≥ 143 µg/mL	196 µg/mL (≈ 484 µM)	CNC(=O)c1cc(C(=O)N[C@H]2CC[C@H](O)CC2)n([C@@H](C)c2cccc(Cl)c2)n1	–
12 ×10⁻⁶ cm/s	–	3.3	–	56 µg/mL (≈ 146 µM)	CC[C@@H](c1ccccc1)n1nc(C(=O)NC)cc1C(=O)N[C@H]1[C@@H]2C[C@@H](O)C[C@@H]21	–
27 ×10⁻⁶ cm/s	31 µg/mL (≈ 87 µM)	3.6	–	–	CNC(=O)c1cc(C(=O)NC2CCOCC2)n([C@@H](C)c2ccccc2)n1	–
> 8 ×10⁻⁶ cm/s	–	3.1	≥ 155 µg/mL	285 µg/mL (≈ 955 µM)	CNC(=O)c1cc(C(=O)NC2CC2)n(Cc2ccccc2)n1	–
44 ×10⁻⁶ cm/s	≥ 150 µg/mL	2.7	–	–	CNC(=O)c1cc(C(=O)N[C@H]2[C@@H]3C[C@@H](OC)C[C@@H]32)n([C@@H](C)c2ccccc2)n1	solubility thermodynamic at 16 h [4]: > 1000 µg/mL
